Test results: PubChem BioAssay (NCI)
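The compound was tested at five concentrations on cells cultured in 96-well plates, with a 48-hour exposure period. Here, GI50 denotes the concentration required for 50% inhibition of growth. TGI denotes the concentration required for complete inhibition of growth.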

Columns and labels:
Experiment in all cases: DTP human tumour cell line panel, 48 h
[1] = test system: MOLT-4 leukemia
[2] = test system: SF-295 CNS
[3] = test system: SK-MEL-2 melanoma
[4] = test system: NCI-H522 lung
[5] = test system: SK-OV-3 ovarian
[6] = test system: OVCAR-4 ovarian
[7] = test system: SF-268 CNS
[8] = test system: HCT-15 colon
[9] = test system: ACHN renal
[10] = test system: K-562 leukemia

Compound	GI50 [1]	TGI [1]	GI50 [2]	TGI [2]	GI50 [3]	TGI [3]	GI50 [4]	TGI [4]	GI50 [5]	TGI [5]	GI50 [6]	TGI [6]	GI50 [7]	TGI [7]	GI50 [8]	TGI [8]	GI50 [9]	TGI [9]	TGI [10]	GI50 [10]
COC12C=C/C(=C(/C(=O)OCc3ccncc3)C(=O)CCCCCCCCC3(OC)C=C/C(=C(/C(=O)OCc4ccncc4)C(=O)CCCCCCCC1)O3)O2	0.172 µM	1.85 µM	0.899 µM	3.29 µM	1.08 µM	3.05 µM	0.564 µM	1.76 µM	2.03 µM	9.02 µM	0.583 µM	3.41 µM	1.04 µM	3.28 µM	0.548 µM	1.74 µM	0.217 µM	1.14 µM	–	–
C[C@H]1NC(=O)C2CCCCN2C(=O)CN(C)C(=O)CNC(=O)C2CCCCN2C(=O)[C@@H](NC(=O)c2nc3ccccc3cc2O)[C@@H](C)NC(=O)C2CCCCN2C(=O)CN(C)C(=O)CNC(=O)[C@@H]2CCCCN2C(=O)C1NC(=O)c1nc2ccccc2cc1O (some centres not stated)	–	7.03 µM	–	4.8 µM	–	0.23 µM	–	0.494 µM	–	> 100 µM	–	5.48 µM	–	0.934 µM	–	> 100 µM	–	–	1.1 µM	–
O=C(O)[C@H](NS(=O)(=O)c1ccc2ccccc2c1)c1ccccc1	–	> 100 µM	–	–	–	> 100 µM	–	> 100 µM	–	> 100 µM	–	> 100 µM	–	> 100 µM	–	> 100 µM	–	> 100 µM	> 100 µM	–
CCOc1ccc2nc(S/C(=C/C=C(C#N)C#N)c3ccc(C)cc3)sc2c1	3.03 µM	8.5 µM	22.8 µM	60.8 µM	–	–	20.8 µM	49.3 µM	> 100 µM	> 100 µM	94.4 µM	> 100 µM	30 µM	> 100 µM	12.2 µM	28.8 µM	18.4 µM	36.9 µM	55 µM	5.28 µM
Nc1c(C(=O)Nc2cccc(Br)c2)sc2nc3c(cc12)C(=O)CCC3	18.5 µM	> 100 µM	0.455 µM	> 59.7 µM	–	–	0.248 µM	–	0.501 µM	> 100 µM	28.5 µM	> 100 µM	19.5 µM	> 100 µM	0.468 µM	> 100 µM	15.7 µM	> 100 µM	> 100 µM	0.14 µM
CCOc1ccc(N2C(=O)/C(=C/c3ccc(N(CCC#N)CCC#N)cc3)N=C2c2cc([N+](=O)[O-])ccc2Cl)cc1	–	13.8 µM	–	83.7 µM	–	> 100 µM	–	–	–	> 100 µM	–	> 100 µM	–	> 100 µM	–	> 100 µM	–	> 100 µM	81.2 µM	–
CCCCCCNC(=O)c1nc(-c2ccccc2)oc1Cc1ccc(OP(=O)(O)O)cc1	20.9 µM	54.8 µM	–	–	19 µM	37.1 µM	16.1 µM	34.5 µM	20 µM	47.6 µM	16.6 µM	30.8 µM	17.3 µM	35.4 µM	17.8 µM	37.2 µM	15.5 µM	29.5 µM	64 µM	22.6 µM
CN(C)c1c([O-])c(=[N+](C)C)c1=O	–	> 100 µM	–	> 100 µM	–	> 100 µM	–	> 100 µM	–	> 100 µM	–	–	–	> 100 µM	–	> 100 µM	–	> 100 µM	> 100 µM	–
